Laboratory results reported in ChEMBL document CHEMBL4364246, “Synthesis and biological evaluation of 5-aminoethyl benzophenanthridone derivatives as DNA topoisomerase IB inhibitors” (Eur J Med Chem, 2019).

How the values were obtained:
[1] = system: A549; assay: cells; conditions: Homo sapiens, A549, 72 h
[2] = target: T1, DNA topoisomerase 1 (Homo sapiens) (UniProt P11387); assay: Inhibition of recombinant TOP1 (unknown origin) using 3'-[32P]-labeled 117 bp DNA oligonucleotide assessed as TOP1-mediated DNA cleavage by measuring induction and stabilization of cleavage sites 17, 35 and 79 incubated for 20 mins by PAGE analysis
T1 sequence (whole entry): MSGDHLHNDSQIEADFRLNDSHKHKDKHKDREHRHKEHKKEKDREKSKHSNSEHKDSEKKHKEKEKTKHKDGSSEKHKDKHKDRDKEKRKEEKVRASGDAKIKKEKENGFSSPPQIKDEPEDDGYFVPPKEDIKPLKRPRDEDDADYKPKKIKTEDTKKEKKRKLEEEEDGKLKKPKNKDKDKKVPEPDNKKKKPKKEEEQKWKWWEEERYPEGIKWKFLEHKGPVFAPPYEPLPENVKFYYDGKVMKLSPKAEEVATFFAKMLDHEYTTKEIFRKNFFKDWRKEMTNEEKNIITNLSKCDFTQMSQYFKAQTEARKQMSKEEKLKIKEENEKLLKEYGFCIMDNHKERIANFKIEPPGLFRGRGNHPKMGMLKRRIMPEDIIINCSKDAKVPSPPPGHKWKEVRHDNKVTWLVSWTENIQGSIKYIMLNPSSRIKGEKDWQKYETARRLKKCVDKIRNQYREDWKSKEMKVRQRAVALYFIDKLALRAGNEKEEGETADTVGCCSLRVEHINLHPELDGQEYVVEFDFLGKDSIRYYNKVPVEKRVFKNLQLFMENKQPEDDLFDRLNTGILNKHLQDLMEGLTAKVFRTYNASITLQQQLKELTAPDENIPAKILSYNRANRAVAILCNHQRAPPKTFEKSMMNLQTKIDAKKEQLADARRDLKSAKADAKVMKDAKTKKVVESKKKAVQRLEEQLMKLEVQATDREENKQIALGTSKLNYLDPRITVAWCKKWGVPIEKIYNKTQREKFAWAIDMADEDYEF

[3] = system: SF-539; assay: Growth inhibition of human SF539 cells incubated for 48 hrs by sulforhodamine B assay; type: functional; conditions: SF-539, 48 h
[4] = system: SW-620; assay: Growth inhibition of human SW620 cells incubated for 48 hrs by sulforhodamine B assay; type: functional; conditions: SW-620, 48 h
[5] = system: SN12C; assay: Growth inhibition of human SN12C cells incubated for 48 hrs by sulforhodamine B assay; type: functional
[6] = system: MCF7; assay: Growth inhibition of human MCF7 cells incubated for 48 hrs by sulforhodamine B assay; type: functional; conditions: MCF7, 48 h
[7] = system: UACC-257; assay: Growth inhibition of human UACC257 cells incubated for 48 hrs by sulforhodamine B assay; type: functional; conditions: UACC-257, 48 h
[8] = system: HCC 2998; assay: Growth inhibition of human HCC2998 cells incubated for 48 hrs by sulforhodamine B assay; type: functional; conditions: HCC 2998, 48 h
[9] = system: SK-MEL-5; assay: Growth inhibition of human SK-MEL-5 cells incubated for 48 hrs by sulforhodamine B assay; type: functional; conditions: SK-MEL-5, 48 h
[10] = system: T47D; assay: Growth inhibition of human T47D cells incubated for 48 hrs by sulforhodamine B assay; type: functional
[11] = system: UO-31; assay: Growth inhibition of human UO31 cells incubated for 48 hrs by sulforhodamine B assay; type: functional; conditions: UO-31, 48 h
[12] = system: OVCAR-3; assay: Growth inhibition of human OVCAR3 cells incubated for 48 hrs by sulforhodamine B assay; type: functional; conditions: OVCAR-3, 48 h
[13] = system: UACC-62; assay: Growth inhibition of human UACC62 cells incubated for 48 hrs by sulforhodamine B assay; type: functional; conditions: UACC-62, 48 h
[14] = system: HCT-116; assay: cells; conditions: Homo sapiens, HCT-116, 72 h
[15] = system: ACHN; assay: Growth inhibition of human ACHN cells incubated for 48 hrs by sulforhodamine B assay; type: functional
[16] = system: NCI-H23; assay: Growth inhibition of human NCI-H23 cells incubated for 48 hrs by sulforhodamine B assay; type: functional; conditions: NCI-H23, 48 h
[17] = system: MDA-MB-435; assay: Growth inhibition of human MDA-MB-435 cells incubated for 48 hrs by sulforhodamine B assay; type: functional; conditions: MDA-MB-435, 48 h
[18] = system: OVCAR-8; assay: Growth inhibition of human OVCAR8 cells incubated for 48 hrs by sulforhodamine B assay; type: functional; conditions: OVCAR-8, 48 h
[19] = system: NCI-H322M; assay: Growth inhibition of human NCI-H322M cells incubated for 48 hrs by sulforhodamine B assay; type: functional
[20] = system: SNB-75; assay: Growth inhibition of human SNB75 cells incubated for 48 hrs by sulforhodamine B assay; type: functional; conditions: SNB-75, 48 h
[21] = system: HOP-62; assay: Growth inhibition of human HOP62 cells incubated for 48 hrs by sulforhodamine B assay; type: functional; conditions: HOP-62, 48 h
[22] = system: 786-0; assay: Growth inhibition of human 786-0 cells incubated for 48 hrs by sulforhodamine B assay; type: functional; conditions: 786-0, 48 h
[23] = system: SR; assay: Growth inhibition of human SR cells incubated for 48 hrs by sulforhodamine B assay; type: functional
[24] = system: KM12; assay: Growth inhibition of human KM12 cells incubated for 48 hrs by sulforhodamine B assay; type: functional; conditions: KM12, 48 h
[25] = system: MCF7; assay: cells; conditions: Homo sapiens, MCF7, 72 h
[26] = system: OVCAR-5; assay: Growth inhibition of human OVCAR5 cells incubated for 48 hrs by sulforhodamine B assay; type: functional; conditions: OVCAR-5, 48 h
[27] = system: OVCAR-4; assay: Growth inhibition of human OVCAR4 cells incubated for 48 hrs by sulforhodamine B assay; type: functional; conditions: OVCAR-4, 48 h
[28] = system: NCI-H522; assay: Growth inhibition of human NCI-H522 cells incubated for 48 hrs by sulforhodamine B assay; type: functional; conditions: NCI-H522, 48 h
[29] = system: U-251; assay: Growth inhibition of human U251 cells incubated for 48 hrs by sulforhodamine B assay; type: functional; conditions: U-251, 48 h
[30] = system: TK-10; assay: Growth inhibition of human TK10 cells incubated for 48 hrs by sulforhodamine B assay; type: functional; conditions: TK-10, 48 h
[31] = AUC (0 to t) in Sprague-Dawley rat at 1 mg/kg, iv measured for 0.083 to 4 hrs by LC-MS/MS analysis; type: ADME, organism-based; set-up: time 0.083-4 hr, dose 1 mg/kg, route intravenous; conditions: in vivo
[32] = Oral bioavailability in Sprague-Dawley rat at 5 mg/kg measured for 0.083 to 4 hrs by LC-MS/MS analysis; type: ADME, organism-based; conditions: in vivo
[33] = system: HCT-116; assay: Induction of apoptosis in human HCT116 cells assessed as viable cells at 2 uM incubated for 24 hrs by FITC and PI staining based flow cytometric analysis (reference value: 99.27%); type: functional; conditions: HCT-116, 24 h, read-out: Activity
[34] = system: HCT-116; assay: Induction of apoptosis in human HCT116 cells assessed as viable cells at 1 uM incubated for 24 hrs by FITC and PI staining based flow cytometric analysis (reference value: 99.27%); type: functional; conditions: HCT-116, 24 h, read-out: Activity
[35] = system: HCT-116; assay: Induction of apoptosis in human HCT116 cells assessed as viable cells at 0.5 uM incubated for 24 hrs by FITC and PI staining based flow cytometric analysis (reference value: 99.27%); type: functional; conditions: HCT-116, 24 h, read-out: Activity

Question: Which GI50 [1] does the source give for `COc1cc2c(=O)n(CCN)c3c4cc5c(cc4ccc3c2cc1OC)OCO5` here?
Answer: 980 nM

Question: What about the Activity [2] of the same compound?
Answer: Dose-dependent effect

Question: And the GI50 [3]?
Answer: 1060 nM

Question: What about the GI50 [4] of the same compound?
Answer: 243 nM

Question: What about the GI50 [5] of the same compound?
Answer: 739 nM

Question: And the GI50 [6]?
Answer: 164 nM

Question: And the GI50 [7]?
Answer: 1900 nM

Question: And the GI50 [8]?
Answer: 1020 nM

Question: And the GI50 [9]?
Answer: 614 nM

Question: What about the GI50 [10] of the same compound?
Answer: 368 nM

Question: And the GI50 [11]?
Answer: 350 nM

Question: What about the GI50 [12] of the same compound?
Answer: 826 nM

Question: And the GI50 [13]?
Answer: 278 nM

Question: What about the GI50 [14] of the same compound?
Answer: 290 nM

Question: What about the GI50 [15] of the same compound?
Answer: 366 nM

Question: What about the GI50 [16] of the same compound?
Answer: 451 nM

Question: And the GI50 [17]?
Answer: 759 nM

Question: And the GI50 [18]?
Answer: 930 nM

Question: And the GI50 [19]?
Answer: 990 nM

Question: What about the GI50 [20] of the same compound?
Answer: 596 nM

Question: What about the GI50 [21] of the same compound?
Answer: 399 nM

Question: And the GI50 [22]?
Answer: 464 nM

Question: What about the GI50 [23] of the same compound?
Answer: 90.7 nM

Question: What about the GI50 [24] of the same compound?
Answer: 1100 nM

Question: And the GI50 [25]?
Answer: 100 nM

Question: What about the GI50 [26] of the same compound?
Answer: 1200 nM

Question: What about the GI50 [27] of the same compound?
Answer: 782 nM

Question: And the GI50 [28]?
Answer: 87.5 nM

Question: What about the GI50 [29] of the same compound?
Answer: 260 nM

Question: What about the GI50 [30] of the same compound?
Answer: 1350 nM

Question: What does the source list for `CNCCn1c(=O)c2cc(OC)c(OC)cc2c2ccc3cc4c(cc3c21)OCO4`?
Answer: GI50 [1]: 970 nM; Activity [2]: Dose-dependent effect; AUC(0-t) [31]: 47.2 ng·h/mL; GI50 [3]: 124 nM; F [32]: 20.4%; viability at 2 µM [33]: 69.4%; viability at 1 µM [34]: 88.1%; GI50 [4]: 65.8 nM; GI50 [5]: 171 nM; GI50 [6]: 29.2 nM; GI50 [7]: 122 nM; GI50 [8]: 156 nM; GI50 [9]: 90.9 nM; GI50 [10]: 75.7 nM; GI50 [11]: 104 nM; GI50 [12]: 166 nM; GI50 [13]: 45.1 nM; GI50 [14]: 36 nM; GI50 [15]: 85.6 nM; GI50 [16]: 90.6 nM; GI50 [17]: 118 nM; GI50 [18]: 132 nM; GI50 [19]: 147 nM; viability at 0.5 µM [35]: 93.3%; GI50 [20]: 88.5 nM; GI50 [21]: 43.9 nM; GI50 [22]: 70.3 nM; GI50 [23]: 17.3 nM; GI50 [24]: 238 nM; GI50 [25]: 90 nM; GI50 [26]: 183 nM; GI50 [27]: 154 nM; GI50 [28]: 27.4 nM; GI50 [29]: 39.4 nM; GI50 [30]: 316 nM
